In patent US9779901B2, “High temperature material compositions for high temperature thermal cutoff devices” (Therm-O-Disc, Incorporated, priority 2008, dated 2017):
Where two headings read alike, the source gives them in different places.

Tests used:
[1] = estimated melting point temperature ranges of candidate organic compounds (Table 2); some compounds have several values, partly in parentheses, because analytic techniques differ; cited from earlier work
[2] = 20° C.; cited from earlier work

| Compound | Melting Point [1] | Melting Point | Vapor Pressure [2] |
| --- | --- | --- | --- |
| O=C1N=C(NO)c2ccccc21 [Example 182] | 264-266° ° C. | 264 to 266 °C |  |
| O=c1cc2[nH]c3ccccc3oc-2cc1=O [Example 185] | 264-265° ° C. | 264 to 265 °C |  |
| CCCCCCCCn1cnc2c(=S)nc[nH]c21 [Example 188] | 264-266° ° C. | 264 to 266 °C |  |
| c1ccc(-c2n[nH]c(-c3ccccc3)c2-c2ccccc2)cc1 [Example 189] | 265° ° C. | 265 °C |  |
| CC1(C)CC2(CC(C)(C)NC(=O)N2)NC(=O)N1 [Example 190] | 265-268° ° C. | 265 to 268 °C |  |
| NC(=O)c1c2c(nc3ccccc13)CCCC2 [Example 191] | 265-267° ° C. | 265 to 267 °C |  |
| Cn1c(=O)c2ccn(C)c2n(C)c1=O [Example 192] | 265-266° ° C. | 265 to 266 °C |  |
| N#Cc1ccc(Nc2ccc(C#N)cc2)cc1 [Example 194] | 265-266° ° C. | 265 to 266 °C |  |
| Nc1cc(N)n(N)c(=S)n1 [Example 197] | 265° ° C. | 265 °C |  |
| Nc1cccc2c1C(=O)c1c(N)cccc1C2=O [Example 198] | 265° ° C. | 265 °C |  |
| Nc1ccc2cc([N+](=O)[O-])ccc2n1 [Example 201] | 265° ° C. | 265 °C |  |
| Cc1ccc2cnc(O)cc2c1 [Example 204] | 265° ° C. | 265 °C |  |
| Cc1nc2c(C)c(C)c(C)c(C)c2[nH]1 [Example 209] | 265° ° C. | 265 °C |  |
| OCC(CO)(CO)CO [pentaerythritol, 2,2-Bis(hydroxymethyl)-1,3-propanediol] |  |  | <1 mmHG (20° C.) |
